As usually defined, the melting point is the temperature, or range, at which the solid turns liquid.

The text below walks through data of a melting point compilation (Tetko et al.; mined from patent text by program, amines drawn as free bases though some values may be those of a salt).

`CC(C)(CO)CCCCCCC(O)CCCCCCC(C)(C)CO` showed a melting point of 75 to 77 °C. Compound `O=c1c2c(oc3c1nnn3Cc1ccccc1)CSC2` came in with a melting point of 210 to 212 °C.

Take `COc1ccc(CCC(=O)c2c(OC)cc(OC)c(CCC(C)C)c2OCC(=O)O)cc1O`: the melting point was in the range of 129 to 130 °C. In the case of `COC(=O)c1ccc(C(O)=CC(=O)c2cc([Si](C)(C)C)ccc2O)cc1` it was 130 to 131 °C; in that of `COC(=O)COc1ccc(C(=O)CN2CCN(c3ccncc3)CC2)cc1`, 150 to 152 °C; in that of `C=CC(C)=CC=C(C(C)=CC(=O)OC1C(CO)OC(OC)C(O)C1O)c1c(C)cc(OC)c(C)c1C` (centres undefined), 159 to 160 °C. On to `O=C(O)Cc1ccc(C2CCCCC2)c2ccccc12`, for which the melting point was in the range of 161 to 163 °C. In the case of `O=C1CCC(N2CCN(c3ccccn3)CC2)CC1` it was 142 to 144 °C; in that of `CCn1c(=O)c2c(nc(/C=C/c3ccc(OC)cc3OC)n2C)n(CC)c1=O`, 196 to 197 °C; in that of `COC(=O)c1nc(Cl)c(F)c(N)c1SC`, 75 to 77 °C. For `Cn1ncc(C(=O)O)c1C(=O)Nc1ccc2nc(N3CCOCC3)nn2c1`, the melting point was found to be 294 °C. For the compound `COc1ccccc1SCC1SCCN1C(=O)CCl` (centres undefined), the melting point lay within 127 to 129 °C.

In turn, `NS(=O)(=O)c1ccc(-n2nc(C=O)cc2-c2ccccc2)cc1` showed a melting point of 177 to 180 °C. In the case of `Fc1cccc(Cl)c1CNc1ncnc2nsnc12` it was 224 to 226 °C; in that of `O=C(O)Cc1ccc(S(=O)c2ccc(Cl)cc2)cc1` (centres undefined), 139 to 141 °C. Then `CCn1cc(C(=O)O)c(=O)c2cc3oc(C(=O)O)cc3nc21`, with over 300 °C; and `CCCCc1nc(=O)c2cc(-c3nnn[nH]3)ccc2[nH]1`, with 225 °C; and `COc1ccc(C(=O)Nc2c(Cl)cncc2Cl)c2c1OCC2CC(=O)NCc1ccc(F)cc1` (centres undefined), with 287 °C. Then `Cc1c(Cl)ccc(C(N)=O)c1N`, with 206 to 208 °C; and `COc1cc2c(cc1-c1cccnc1)-c1c(-c3cccnc3)c3c(n1CC2)C(=O)N(C(C)(C)C)CCC3`, with 310 to 312 °C. In turn, `COc1cccc(Cn2cnc3c(-c4ccco4)ncnc32)c1` gave a melting point of 138 to 139 °C. Then `CCOC(=O)C1=CC(=O)C(C(=O)OCC)=C(S(=O)(=O)c2ccccc2)C1=O`, with 112 to 114 °C; and `COc1cc2c(cc1OCCN(C)C)N(C(=O)c1ccc(-c3ccc(-c4noc(C)n4)cc3C)cc1)CCC2`, with 139 to 141 °C; and `COc1ccc(-c2nc(C(F)(F)F)c[nH]2)cc1OC1CCCC1`, with 157 to 159 °C. The compound `CCOC(=O)c1cc2c(cn1)[nH]c1ccc(C(C)=O)cc12` gave a melting point of 290 to 305 °C. Compound `CCC1(C)Cc2c(C)c(N3CCN(c4ccc(OC)cc4)CC3)c(C)c(C)c2O1` (centres undefined) yielded a melting point of 106 to 110 °C. Then `COc1ccc(/C=C/C(=O)N[C@@H]2N=C(c3ccccc3)c3ccccc3N(C)C2=O)cc1`, with 129 to 133 °C; and `N#CC(C#N)=CN(N=C(C#N)C#N)c1ccc([N+](=O)[O-])cc1`, with 179 to 181 °C. Take `Cc1ccc(S(=O)(=O)OCC2Cc3cccc(-c4ccc(Cl)cc4)c3O2)cc1` (centres undefined): the melting point fell in the range of 130 to 133 °C.

Consider `O=c1c2ccccc2[nH]n1CC#Cc1ccccc1`, for which the melting point was in the range of 151 to 154 °C. The compound `O=C(Nc1ccc(C(=O)N2C[C@@H]3C[C@H](O)CN3c3ccccc32)cc1)c1ccccc1-c1ccccc1` returned a melting point of 164 to 165 °C. In the case of `COc1ccc2c(c1)C(=O)N(c1ccc3c(c1)CCCN3C)C2` it was 123 to 127 °C.

`CCOC(=O)c1ccc2c(c1)Cc1ccc(C(=O)OCC)cc1O2` displayed a melting point of 156 to 158 °C. As for `NOCCc1cn(C(c2ccccc2)(c2ccccc2)c2ccccc2)cn1`, the melting point worked out at 93 °C. Then `Cn1c(C(F)(F)F)ccc(-c2c(F)cc(Cl)c3occc23)c1=O`, with 178 to 179 °C. Then `O=C(O)CCc1ccc(-c2ccccc2)cc1`, with 143 to 149 °C; and `Fc1ccc(N2CCN(c3cccc(C(F)(F)F)c3)CC2)nn1`, with 132 °C; and `CC(=O)Oc1ccc([C@H]2[C@H](c3ccccc3)C2(Cl)Cl)cc1` (relative stereo), with 124 to 126 °C. `COC(=O)COc1coc2ccccc2c1=O` gave a melting point of 114 to 116 °C. Then `Cc1ccc(CSC(=S)N2Cc3[nH]c4ccccc4c3CC2C(=O)O)cc1` (centres undefined), with 188 to 190 °C; and `CC(=O)Nc1ccccc1C(=O)C=CN(C)C`, with 90 to 95 °C; and `N#Cc1ccc(CNCCO)cc1`, with under 60 °C. The compound `O=[N+]([O-])c1ccc(Cl)c(C=Cc2nc3ccccc3s2)c1` yielded a melting point of 188 to 189 °C.

`CNc1nc(C)c(-c2ccnc(Nc3cccc(CC(=O)OCCOC)c3)n2)s1` showed a melting point of 193 to 195 °C. Then `CN(CCC(=O)O)C(=O)N(c1ccc(Cl)cc1)C(C)(C)C`, with 90 to 95 °C; and `CC(C)(CNS(C)(=O)=O)Nc1nc(Cl)ncc1Cl`, with 156 to 158 °C; and `CCOc1cc2ncc(C#N)c(Nc3ccccc3)c2cc1OCC`, with 168 to 170 °C. Then `CO[C@]1(c2cccc(OCc3ccc4c(ccc(=O)n4C)c3)c2)CCO[C@@H](C)C1`, with 88 to 90 °C; and `CC1(C)CC(Cc2ccc(CC3CC(C)(C)N(Cc4ccccc4)C(C)(C)C3)cc2)CC(C)(C)N1Cc1ccccc1`, with 207 to 208 °C. In the case of `COc1cc(C(=O)O)ccc1Cc1c[nH]c2ccc(NC(=O)CC3CCCC3)cc12` it was 218 to 219 °C. For `CC[C@H](C)[C@H](NC(=O)O[C@@H](CC(C)C)C(=O)OCc1ccccc1)C(=O)NC1CCCCC1`, the melting point was in the range of 98 to 100 °C. Turning to `CC1CC(=O)NN=C1c1ccc(CCCCN)cc1` (centres undefined), the melting point lay within 135 to 137 °C. In the case of `Cc1cc([N+](=O)[O-])cc(C)c1Oc1ccc([N+](=O)[O-])c(Nc2ccc(C#N)cc2)n1` it was 250 to 252 °C; in that of `C=C[C@H]1CN2CC[C@H]1C[C@H]2[C@H](OC(=O)c1ccc(OCCCCCC)cc1)c1ccnc2ccccc12`, 70 °C. `Cc1cccc2nc3sc(Cl)cn3c(=O)c12` displayed a melting point of 162 to 166 °C. `CN(C)n1c(S)nc2ccccc2c1=O` registered a melting point of 245 to 249 °C. Then `O=C1c2cccc([N+](=O)[O-])c2C2CC3(CCN12)OCCO3` (centres undefined), with 206 °C; and `Nc1cc(-c2cc(Cl)cc(Cl)c2)cc2nc(-c3ccco3)nn12`, with 257 to 260 °C; and `CC(COc1ccc2c(c1)CCCC2=O)n1ccnc1` (centres undefined), with 132 to 135 °C. Then `COC(=O)c1cc(S)cc(S)c1`, with 61 to 62 °C. Then `O=Cc1c(Cl)cc(Cl)cc1OCc1ccc(F)cc1`, with 107 to 108 °C; and `O=S1(=O)N=C(NC2CCCC2)Nc2cc(F)ccc21`, with 295 to 298 °C; and `C=CC1(CO)OC(OC2C(COCc3ccccc3)OC(OC)C(OCc3ccccc3)C2OCc2ccccc2)C(OC(C)=O)C(OC)C1O` (centres undefined), with 53 °C. Regarding `Cc1cc(C)cc(C23SCCN2C(=O)c2ccccc23)c1` (centres undefined), the melting point worked out at 163 °C.

The compound `CCCc1cccc2sc(Sc3ccc4c(c3)CC[C@H]3N(C)C(=O)CC[C@]43C)nc12` registered a melting point of 109 to 111 °C. In the case of `O=C1N=C(N2CCOCC2)SC1c1cccc(-c2ccc(O)c(-c3ccccc3)c2)n1` (centres undefined) it was 292 to 295 °C; in that of `Cc1oc(-c2ccccc2)nc1Cc1cc2cc(/C=C/CO)ccc2o1`, 156 to 157 °C.

Compound `CC(O)CNC(=O)c1cc2ccccc2o1` (centres undefined) had a melting point of 90 to 91 °C.

In turn, `COC(=O)C(NCc1ccccc1)c1c[nH]c2ccccc12` (centres undefined) came in with a melting point of 91.5 to 93 °C. In the case of `NC(=O)CC(O)(c1ccc(Br)cc1)c1cccnc1` (centres undefined), the melting point fell in the range of 213 to 214 °C.

`Cc1nnsc1C(=O)Nc1ccc(-n2nc(C(F)(F)F)cc2C#N)cc1`: the melting point is 193 to 195 °C. With `Cn1c(C(F)(F)F)cc(=O)[nH]c1=O`, the melting point fell in the range of 140 to 142 °C. Then `NC(=O)c1cccc(C(=O)Nc2ccc(-n3nc(C(F)(F)F)cc3C(F)(F)F)cc2)c1`, with 244 to 245 °C; and `CCCn1c(=O)c2[nH]c(C3CCOCC3)nc2n(CCC)c1=O`, with 171 to 172 °C; and `CCOC(=O)C1=C(C)NN=C(CC)C1c1ccccc1` (centres undefined), with 109 °C.

As for `CNC(=O)c1cccnc1N`, the melting point fell in the range of 140 to 142 °C. Consider `COc1ccc(CC(=O)O)c(OCCCc2cn(-c3ccc(C(F)(F)F)cn3)nc2C(C)C)c1`, for which the melting point is 143 to 144 °C. Then `CN1CCC(N2CCN(c3cccc(-c4cn[nH]c4N)c3)CC2)CC1`, with 213 to 220 °C; and `O=C(Nc1ccc(C(F)(F)F)cc1)c1ccccc1SSc1ccccc1C(=O)Nc1ccc(C(F)(F)F)cc1`, with 272 to 275 °C. In the case of `CCN(CC)c1ccc(NC(=O)c2ccc(-c3[nH]nc4c3C(=O)c3c(NC(=O)NN5CCOCC5)cccc3-4)s2)cc1`, the melting point was 198 to 199 °C. Then `COCc1cccc2sc(C(=O)O)cc12`, with 212 to 214 °C; and `N#CC(=NOS(=O)(=O)c1ccc(C(=O)Cl)cc1)c1ccccc1`, with 193 to 195 °C. In the case of `O=CC(=Cc1ccc(OC(=O)c2ccccc2)cc1)C(C=O)=Cc1ccc(OC(=O)c2ccccc2)cc1` it was 207 to 208 °C.

Compound `O=C(NCC1CC2C=CC1C2)NS(=O)(=O)C=Cc1ccccc1` (centres undefined) yielded a melting point of 161 to 164 °C.

`CCc1c(-c2ccccc2)ncc2c(N3CCCCC3)nnc(N3CCCCC3)c12` gave a melting point of 64 to 65 °C. Then `CC(Oc1ccc2c(c1)c(-c1cc3cccnc3[nH]1)cn2C)C(=O)O` (centres undefined), with 177 to 178 °C. The compound `CC(=O)Nc1ccc2c(c1)NCC(CN(C)C)C2` (centres undefined) had a melting point of 118 to 123 °C. The compound `CCCc1nc2c(N)nc3cc(OCc4ccc(F)cc4)ccc3c2s1` returned a melting point of 189 to 192 °C.

On to `Cc1oc(-c2ccco2)nc1COc1ccc(CON=C(CCCCC(=O)O)c2ccccc2)cc1`, for which the melting point was 112 to 113 °C.
